For assay [1], the system named is Tyrosine-protein kinase ABL1 (Homo sapiens), P00519 [T315I]. Nature of the assay: Binding affinity to human phosphorylated ABL1 T315I mutant (S229 to K512 residues) expressed in mammalian expression system assessed as residual binding level at 10 uM by Kinomescan method relative to control.
For assay [2], the target named is Citron Rho-interacting kinase (Homo sapiens) (UniProt O14578). Nature of the assay: Binding affinity to wild-type human partial length CIT (M68 to E432 residues) expressed in bacterial expression system assessed as residual binding level at 10 uM by Kinomescan method relative to control.
Assay [3] concerns the target Dual specificity protein kinase CLK2 (Homo sapiens) (UniProt P49760). Nature of the assay: Binding affinity to wild-type human partial length CLK2 (D144 to R498 residues) expressed in bacterial expression system assessed as residual binding level at 10 uM by Kinomescan method relative to control.
For assay [4], the system named is Epidermal growth factor receptor (Homo sapiens), P00533 [UNDEFINED MUTATION]. Nature of the assay: Binding affinity to human partial length EGFR E746-A750del mutant expressed in bacterial expression system assessed as residual binding level at 10 uM by Kinomescan method relative to control.
Assay [5] has as its target Mitogen-activated protein kinase 4 (Homo sapiens) (UniProt P31152). Put plainly: Binding affinity to wild-type human partial length ERK4 (M1 to L365 residues) expressed in bacterial expression system assessed as residual binding level at 10 uM by Kinomescan method relative to control.
Assay [6] addresses Serine/threonine-protein kinase/endoribonuclease IRE1 (Homo sapiens) (UniProt O75460). Put plainly: Binding affinity to wild-type human partial length ERN1 (S551 to E852 residues) expressed in mammalian expression system assessed as residual binding level at 10 uM by Kinomescan method relative to control.
Assay [7] deals with Fibroblast growth factor receptor 1 (Homo sapiens) (UniProt P11362). Put plainly: Binding affinity to wild-type human partial length FGFR1 (P357 to V669 residues) expressed in bacterial expression system assessed as residual binding level at 10 uM by Kinomescan method relative to control.
Assay [8] deals with Vascular endothelial growth factor receptor 1 (Homo sapiens) (UniProt P17948). Put plainly: Binding affinity to wild-type human partial length FLT1 (R781 to F1239 residues) expressed in bacterial expression system assessed as residual binding level at 10 uM by Kinomescan method relative to control.
Assay [9] deals with Rhodopsin kinase GRK1 (Homo sapiens) (UniProt Q15835). Nature of the assay: Binding affinity to wild-type human full length GRK1 (M1 to S563 residues) expressed in mammalian expression system assessed as residual binding level at 10 uM by Kinomescan method relative to control.
The target in assay [10] is Mitogen-activated protein kinase kinase kinase 4 (Homo sapiens) (UniProt Q9Y6R4). Put plainly: Binding affinity to wild-type human partial length MAP3K4 (G1319 to E1608 residues) expressed in bacterial expression system assessed as residual binding level at 10 uM by Kinomescan method relative to control.
Mitogen-activated protein kinase kinase kinase 4 (Homo sapiens), sequence (Q9Y6R4 whole entry, the tested form may be a part): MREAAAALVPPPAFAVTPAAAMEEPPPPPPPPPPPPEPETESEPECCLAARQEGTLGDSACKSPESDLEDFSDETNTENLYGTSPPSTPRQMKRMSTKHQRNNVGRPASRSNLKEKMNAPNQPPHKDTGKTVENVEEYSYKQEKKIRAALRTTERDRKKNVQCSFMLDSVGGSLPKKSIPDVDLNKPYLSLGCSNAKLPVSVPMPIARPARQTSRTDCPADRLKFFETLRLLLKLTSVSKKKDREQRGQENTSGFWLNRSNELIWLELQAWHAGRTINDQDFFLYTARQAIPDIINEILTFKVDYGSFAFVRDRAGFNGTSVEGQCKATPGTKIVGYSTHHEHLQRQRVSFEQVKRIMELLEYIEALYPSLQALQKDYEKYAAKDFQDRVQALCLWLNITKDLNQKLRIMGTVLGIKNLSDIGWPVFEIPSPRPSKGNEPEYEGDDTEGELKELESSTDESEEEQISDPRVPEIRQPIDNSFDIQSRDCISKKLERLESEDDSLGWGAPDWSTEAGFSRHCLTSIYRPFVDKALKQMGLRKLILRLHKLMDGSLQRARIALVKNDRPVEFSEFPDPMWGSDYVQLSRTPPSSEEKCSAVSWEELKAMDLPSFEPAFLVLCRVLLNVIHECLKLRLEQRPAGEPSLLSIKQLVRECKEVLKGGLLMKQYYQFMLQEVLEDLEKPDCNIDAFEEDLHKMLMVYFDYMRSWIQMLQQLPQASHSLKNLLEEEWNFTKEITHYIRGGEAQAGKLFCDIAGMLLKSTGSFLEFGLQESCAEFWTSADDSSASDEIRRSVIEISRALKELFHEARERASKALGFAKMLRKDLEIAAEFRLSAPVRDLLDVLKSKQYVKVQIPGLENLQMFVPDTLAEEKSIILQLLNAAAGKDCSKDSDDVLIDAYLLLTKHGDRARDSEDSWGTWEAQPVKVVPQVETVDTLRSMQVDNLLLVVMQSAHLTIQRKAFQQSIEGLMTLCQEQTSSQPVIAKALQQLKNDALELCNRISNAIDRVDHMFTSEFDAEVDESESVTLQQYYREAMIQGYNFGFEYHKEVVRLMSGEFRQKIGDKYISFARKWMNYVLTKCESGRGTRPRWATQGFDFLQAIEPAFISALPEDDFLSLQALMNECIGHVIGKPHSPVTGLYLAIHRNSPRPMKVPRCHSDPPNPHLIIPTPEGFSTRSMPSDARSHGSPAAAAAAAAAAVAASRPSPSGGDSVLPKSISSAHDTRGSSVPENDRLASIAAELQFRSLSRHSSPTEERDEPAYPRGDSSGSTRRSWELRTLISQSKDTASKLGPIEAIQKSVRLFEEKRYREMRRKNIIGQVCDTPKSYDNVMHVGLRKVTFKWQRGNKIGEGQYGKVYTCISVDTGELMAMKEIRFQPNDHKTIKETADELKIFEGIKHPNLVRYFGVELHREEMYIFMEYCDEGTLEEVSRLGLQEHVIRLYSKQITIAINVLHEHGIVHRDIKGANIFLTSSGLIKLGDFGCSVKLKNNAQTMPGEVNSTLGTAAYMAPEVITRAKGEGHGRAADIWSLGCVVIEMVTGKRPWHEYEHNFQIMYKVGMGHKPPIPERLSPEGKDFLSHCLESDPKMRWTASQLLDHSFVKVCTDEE
In assay [11] the target is Misshapen-like kinase 1 (Homo sapiens) (UniProt Q8N4C8). Nature of the assay: Binding affinity to wild-type human partial length MINK (M1 to K312 residues) expressed in mammalian expression system assessed as residual binding level at 10 uM by Kinomescan method relative to control.
In assay [12] the target is Serine/threonine-protein kinase MRCK alpha (Homo sapiens) (UniProt Q5VT25). Nature of the assay: Binding affinity to wild-type human partial length MRCKA (L57 to V418 residues) expressed in bacterial expression system assessed as residual binding level at 10 uM by Kinomescan method relative to control.
The target of assay [13] is Serine/threonine-protein kinase 24 (Homo sapiens) (UniProt Q9Y6E0). Put plainly: Binding affinity to wild-type human partial length MST3 (A30 to S311 residues) expressed in bacterial expression system assessed as residual binding level at 10 uM by Kinomescan method relative to control.
Assay [14] has as its target Serine/threonine-protein kinase NLK (Homo sapiens) (UniProt Q9UBE8). Put plainly: Binding affinity to wild-type human full length NLK (M13 to E527 residues) expressed in bacterial expression system assessed as residual binding level at 10 uM by Kinomescan method relative to control.
The target of assay [15] is Mitogen-activated protein kinase 11 (Homo sapiens) (UniProt Q15759). Nature of the assay: Binding affinity to wild-type human full length p38-beta (M1 to Q364 residues) expressed in bacterial expression system assessed as residual binding level at 10 uM by Kinomescan method relative to control.
In assay [16] the test system is Phosphatidylinositol 4,5-bisphosphate 3-kinase catalytic subunit alpha isoform (Homo sapiens), P42336 [C420R]. Put plainly: Binding affinity to human partial length PIK3CA C420R mutant (R108 to N1068 residues) expressed in mammalian expression system assessed as residual binding level at 10 uM by Kinomescan method relative to control.
The subject of assay [17] is Phosphatidylinositol 4,5-bisphosphate 3-kinase catalytic subunit alpha isoform (Homo sapiens), P42336 [H1047L]. Nature of the assay: Binding affinity to human partial length PIK3CA H1047L mutant (R108 to N1068 residues) expressed in mammalian expression system assessed as residual binding level at 10 uM by Kinomescan method relative to control.
Assay [18] deals with Interferon-induced, double-stranded RNA-activated protein kinase (Homo sapiens) (UniProt P19525). Nature of the assay: Binding affinity to wild-type human partial length PRKR (F247 to C551 residues) expressed in bacterial expression system assessed as residual binding level at 10 uM by Kinomescan method relative to control.
Interferon-induced, double-stranded RNA-activated protein kinase (Homo sapiens), sequence (P19525 whole entry, the tested form may be a part): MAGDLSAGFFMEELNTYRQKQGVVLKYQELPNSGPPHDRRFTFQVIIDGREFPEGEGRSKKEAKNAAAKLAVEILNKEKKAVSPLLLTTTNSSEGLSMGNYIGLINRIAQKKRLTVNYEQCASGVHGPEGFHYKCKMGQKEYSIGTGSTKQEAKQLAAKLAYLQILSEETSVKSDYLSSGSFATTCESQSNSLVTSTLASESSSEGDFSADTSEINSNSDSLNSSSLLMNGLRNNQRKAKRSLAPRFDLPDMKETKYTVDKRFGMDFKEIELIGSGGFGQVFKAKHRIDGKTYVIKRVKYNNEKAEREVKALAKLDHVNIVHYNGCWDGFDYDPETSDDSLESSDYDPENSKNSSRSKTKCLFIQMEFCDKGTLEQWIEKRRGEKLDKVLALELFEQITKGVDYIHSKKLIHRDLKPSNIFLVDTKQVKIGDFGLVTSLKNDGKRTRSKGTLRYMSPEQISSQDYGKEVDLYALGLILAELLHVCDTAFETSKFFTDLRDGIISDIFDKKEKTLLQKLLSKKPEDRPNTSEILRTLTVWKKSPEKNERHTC
Assay [19] concerns the target cAMP-dependent protein kinase catalytic subunit PRKX (Homo sapiens) (UniProt P51817). Nature of the assay: Binding affinity to wild-type human partial length PRKX (M1 to F358 residues) expressed in bacterial expression system assessed as residual binding level at 10 uM by Kinomescan method relative to control.
The target in assay [20] is TGF-beta receptor type-1 (Homo sapiens) (UniProt P36897). Nature of the assay: Binding affinity to wild-type human partial length TGFBR1 (D179 to M503 residues) expressed in bacterial expression system assessed as residual binding level at 10 uM by Kinomescan method relative to control.
TGF-beta receptor type-1 (Homo sapiens), sequence (P36897 whole entry, the tested form may be a part): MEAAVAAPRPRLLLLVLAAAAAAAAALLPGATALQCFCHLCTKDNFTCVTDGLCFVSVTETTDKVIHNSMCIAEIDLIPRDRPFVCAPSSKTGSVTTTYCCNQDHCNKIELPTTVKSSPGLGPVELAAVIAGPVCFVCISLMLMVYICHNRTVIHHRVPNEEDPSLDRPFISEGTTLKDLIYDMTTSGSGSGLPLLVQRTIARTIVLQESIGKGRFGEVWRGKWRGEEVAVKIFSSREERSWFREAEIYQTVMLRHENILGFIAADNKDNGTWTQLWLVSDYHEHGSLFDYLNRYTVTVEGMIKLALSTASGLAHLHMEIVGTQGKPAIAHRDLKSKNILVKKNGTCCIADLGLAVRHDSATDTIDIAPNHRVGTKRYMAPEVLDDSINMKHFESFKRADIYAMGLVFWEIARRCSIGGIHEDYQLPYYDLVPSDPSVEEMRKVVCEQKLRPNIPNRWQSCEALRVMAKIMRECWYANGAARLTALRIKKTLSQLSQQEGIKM
Assay [21] concerns the target Non-receptor tyrosine-protein kinase TNK1 (Homo sapiens) (UniProt Q13470). Nature of the assay: Binding affinity to wild-type human full length TNK1 (M1 to P661 residues) expressed in bacterial expression system assessed as residual binding level at 10 uM by Kinomescan method relative to control.
The target in assay [22] is Tyrosine-protein kinase TXK (Homo sapiens) (UniProt P42681). Nature of the assay: Binding affinity to wild-type human partial length TXK (L238 to W527 residues) expressed in bacterial expression system assessed as residual binding level at 10 uM by Kinomescan method relative to control.
The target in assay [23] is Non-receptor tyrosine-protein kinase TYK2 (Homo sapiens) (UniProt P29597). Put plainly: Binding affinity to wild-type human partial length TYK2 JH2 pseudokinase domain (G556 to D888 residues) expressed in mammalian expression system assessed as residual binding level at 10 uM by Kinomescan method relative to control.
Non-receptor tyrosine-protein kinase TYK2 (Homo sapiens), sequence (P29597 whole entry, the tested form may be a part): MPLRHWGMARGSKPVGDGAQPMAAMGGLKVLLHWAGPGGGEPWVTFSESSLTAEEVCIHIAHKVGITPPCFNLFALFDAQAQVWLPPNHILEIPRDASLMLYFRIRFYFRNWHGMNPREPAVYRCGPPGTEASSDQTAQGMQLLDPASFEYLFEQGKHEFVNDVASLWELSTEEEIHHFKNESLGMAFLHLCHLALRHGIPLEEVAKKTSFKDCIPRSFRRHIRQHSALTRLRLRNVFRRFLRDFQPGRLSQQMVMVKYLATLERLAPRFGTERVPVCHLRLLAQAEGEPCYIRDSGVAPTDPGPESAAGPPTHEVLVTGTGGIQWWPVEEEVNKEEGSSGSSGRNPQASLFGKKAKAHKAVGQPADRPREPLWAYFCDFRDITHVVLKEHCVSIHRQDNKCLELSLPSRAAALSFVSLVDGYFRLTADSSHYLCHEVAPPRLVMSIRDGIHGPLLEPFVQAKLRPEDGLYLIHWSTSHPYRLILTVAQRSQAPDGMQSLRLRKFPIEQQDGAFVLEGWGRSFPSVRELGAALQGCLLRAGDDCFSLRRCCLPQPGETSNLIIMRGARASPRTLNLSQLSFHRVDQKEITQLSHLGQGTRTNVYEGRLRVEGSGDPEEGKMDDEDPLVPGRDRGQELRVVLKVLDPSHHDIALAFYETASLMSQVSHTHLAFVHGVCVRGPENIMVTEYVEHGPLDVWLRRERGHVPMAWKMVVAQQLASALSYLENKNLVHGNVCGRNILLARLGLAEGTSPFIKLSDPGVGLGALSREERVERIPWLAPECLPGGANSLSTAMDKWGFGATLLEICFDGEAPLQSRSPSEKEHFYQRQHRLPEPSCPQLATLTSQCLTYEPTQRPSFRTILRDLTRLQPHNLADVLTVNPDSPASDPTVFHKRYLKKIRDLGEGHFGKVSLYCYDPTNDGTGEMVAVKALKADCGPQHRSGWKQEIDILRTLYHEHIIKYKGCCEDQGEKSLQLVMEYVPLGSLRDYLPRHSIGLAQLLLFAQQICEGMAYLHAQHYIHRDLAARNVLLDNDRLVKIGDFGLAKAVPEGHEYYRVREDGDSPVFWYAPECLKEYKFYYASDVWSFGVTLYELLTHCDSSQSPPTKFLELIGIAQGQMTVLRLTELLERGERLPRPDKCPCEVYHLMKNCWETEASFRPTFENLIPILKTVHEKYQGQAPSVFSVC
The test system of assay [24] is Neutrophil. Put plainly: Inhibition of PMA-induced NETosis in human neutrophils assessed as inhibition of ROS production at 25 uM pretreated for 25 mins followed by PMA stimulation and measured after 20 mins by DCFH-DA based flow cytometry. It is filed as functional, cell-based. Background: In flow cytometry, cells or beads pass a laser one at a time.

Active and inactive are the calls of the source. The rule behind the calls is not given here.

Serine/threonine-protein kinase/endoribonuclease IRE1 (Homo sapiens), sequence (O75460 19-977 limits assumed): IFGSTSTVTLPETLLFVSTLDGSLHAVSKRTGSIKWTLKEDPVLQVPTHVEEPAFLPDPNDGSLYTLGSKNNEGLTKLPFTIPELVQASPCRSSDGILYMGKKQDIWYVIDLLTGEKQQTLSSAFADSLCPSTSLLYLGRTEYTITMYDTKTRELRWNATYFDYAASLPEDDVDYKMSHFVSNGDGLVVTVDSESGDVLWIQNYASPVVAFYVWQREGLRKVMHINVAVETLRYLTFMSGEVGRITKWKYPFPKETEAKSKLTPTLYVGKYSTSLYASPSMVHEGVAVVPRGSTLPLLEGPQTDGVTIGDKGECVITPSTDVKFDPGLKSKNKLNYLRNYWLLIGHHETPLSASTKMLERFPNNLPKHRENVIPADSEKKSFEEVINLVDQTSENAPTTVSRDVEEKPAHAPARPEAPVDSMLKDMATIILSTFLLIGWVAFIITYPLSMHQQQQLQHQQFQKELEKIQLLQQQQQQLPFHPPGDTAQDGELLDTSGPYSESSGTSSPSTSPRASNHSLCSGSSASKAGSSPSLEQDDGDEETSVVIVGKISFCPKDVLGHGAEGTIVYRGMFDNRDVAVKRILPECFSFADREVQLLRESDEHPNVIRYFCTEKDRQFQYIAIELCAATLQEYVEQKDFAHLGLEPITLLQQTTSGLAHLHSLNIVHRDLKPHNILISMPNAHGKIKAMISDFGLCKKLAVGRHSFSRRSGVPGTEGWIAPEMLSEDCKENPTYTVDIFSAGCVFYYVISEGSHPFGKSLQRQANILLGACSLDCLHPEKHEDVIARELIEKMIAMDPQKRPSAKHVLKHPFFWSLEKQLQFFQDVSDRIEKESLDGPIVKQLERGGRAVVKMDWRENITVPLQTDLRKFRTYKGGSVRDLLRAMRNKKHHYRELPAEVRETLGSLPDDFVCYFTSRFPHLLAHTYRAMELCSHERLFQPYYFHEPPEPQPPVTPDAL

For the compound `CC(C)N1C(=O)C(NCCCN(C)C)=C(c2cn(C)c3ccccc23)C1=O.Cl`, the Activity in [1] came to 90%; in assay [2] it was 84%; in assay [3], 90%; in assay [4] it was 100%; in [5], 100%; in [6], 85%. In addition, the Activity was 84% in assay [7]; 82% in assay [8]; 96% in assay [9]; 85% in [10]; 94% in assay [11]; 98% in assay [12]. Besides, the Activity was found to be 100% in [13]; 94% in [14]; 96% in assay [15]; 75% in assay [16]; 78% in assay [17]; 100% in [18]. For the same compound, the Activity in assay [19] worked out at 88%; in assay [20] it was 100%; in [21], 95%; in assay [22] it was 88%; in [23], 88%. Further, the inhibition result in assay [24] was “inactive”.

For the origin of these results see ChEMBL document CHEMBL4304811, “Development of a Water-Soluble Indolylmaleimide Derivative IM-93 Showing Dual Inhibition of Ferroptosis and NETosis” (ACS Med Chem Lett, 2019).
